Assays:
Assay type in all cases: biochemical
[1] = tested on: HSD1 enzyme that is expressed in rabbit placenta tissue; assay: Inhibition of E1 to E2 conversion in rabbit placenta tissue homogenate; details: compound 100 nM, 30 nM estrone, 1 mM β-NADPH, 30 min
Procedure: The assay is based on an enzymatic reaction where HSD1 enzyme that is expressed in rabbit placenta tissue converts its natural substance estrone (E1) to estradiol (E2) in the presence of a co-factor β-NADPH.
Homogenization of rabbit placenta tissue: Weight a piece of the frozen tissue into a Precellys ck28 bead tube. Add buffer solution (20 mM KH2PO4 with 1 mM EDTA, pH 7.4) in 1:2 ratio (e.g. 300 mg of tissue:600 μl reaction buffer solution). Insert the bead tubes to homogenizer and homogenize 2×30 s. 6000 rpm.
Centrifugated 5 min., 2600 rpm at +4° C. and collect supernatant. Aliquots of homogenate are stored in −80° C.
Assay—Inhibition of E1 to E2 conversion in rabbit placenta tissue: The reaction takes place in a buffer solution (20 mM KH2PO4 with 1 mM EDTA, pH 7,4), including appropriate amount of rabbit placenta homogenate, co-factor (1 mM β-NADPH), Substrate (30 nM estrone), labelled substrate as tracer (5 nM [^3H]-estrone), and the potential inhibitor at concentrations 1 μM or 0.1 μM. Inhibitor stock solutions were prepared in DMSO. Final concentration of DMSO was adjusted to 1% in all samples. During a 30-minute incubation part of the estrone is converted to estradiol. The reaction is stopped by lowering the pH to 1 with 10% trichloro acetic acid (TCA). The substrate and conversion products are analyzed by HPLC and a Scintillation counter analyzer. Total radioactivity for estrone and estradiol were determined in each sample and percent conversion of estrone to estradiol was calculated according to the following formula:
% conversion=100×{(cpm estradiol in sample with inhibitor)/[(cpm estrone in sample with inhibitor)+(cpm estradiol in sample with inhibitor)]}/{(cpm estradiol in sample without inhibitor)/[(cpm estrone in sample without inhibitor)+(cpm estradiol in sample without inhibitor)]}.
(§1) Percent inhibition was calculated followingly: % inhibition=100−% conversion.

[2] = biological target: T1, recombinant human 17β-HSD1 (Homo sapiens, UniProt P14061); assay: Inhibition of recombinant human 17β-HSD1 (estrone to estradiol conversion, HPLC/radioactivity); details: compound 100 nM; 30 nM estrone, 1 mM NADPH, 30 min RT
T1 construct: made in house; host or cells: Sd9 (Sf9) insect cells, baculovirus (Bac to Bac Expression System)
T1 sequence (P14061 1-328): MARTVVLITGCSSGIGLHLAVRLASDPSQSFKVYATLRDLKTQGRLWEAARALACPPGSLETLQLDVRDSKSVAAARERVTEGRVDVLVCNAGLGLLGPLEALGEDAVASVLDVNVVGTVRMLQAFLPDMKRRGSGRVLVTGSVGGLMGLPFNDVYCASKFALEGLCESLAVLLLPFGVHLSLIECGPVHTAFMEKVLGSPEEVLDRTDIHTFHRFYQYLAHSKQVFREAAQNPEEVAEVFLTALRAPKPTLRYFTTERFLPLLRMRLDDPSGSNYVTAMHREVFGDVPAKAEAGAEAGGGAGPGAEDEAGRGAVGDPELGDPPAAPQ
Procedure: 17β-HSD1 production and isolation: Recombinant baculovirus was generated by the “Bac to Bac Expression System” (Invitrogen). Recombinant bacmid was transfected to Sd9 insect cells using “Cellfectin Reagent” (Invitrogen). 60 h later cells were harvested; the microsomal fraction was isolated as described by Puranen, T. J., Poutanen, M. H., Peltoketo, H. E., Vihko, P. T. and Vihko, R. K. (1994) Site-directed mutagenesis of the putative active site of human 17 β-hydroxysteroid dehydrogenase type 1. Biochem. J. 304: 289-293. Aliquots were stored frozen until determination of enzymatic activity.
Assay—Inhibition of recombinant human 17β-HSD1: Recombinant protein (1 μg/ml) was incubated in 20 mM KH2PO4 pH 7.4 with 30 nM estrone (including 800 000 cpm/ml of ^3H-estrone) and 1 mM NADPH for 30 min at RT, in the presence of the potential inhibitor at concentrations 1 μM or 0.1 μM. Inhibitor stock solutions were prepared in DMSO. Final concentration of DMSO was adjusted to 1% in all samples. The enzyme reaction was stopped by addition of 10% trichloroacetic acid (final concentration). Samples were centrifuged in a microtiter plate at 4000 rpm for 10 min. Supernatants were applied to reverse phase HPLC on a Waters Symmetry C18 column, equipped with a Waters Sentry Guard column. Isocratic HPLC runs were performed at RT at a flow rate of 1 ml/min in acetonitrile:water 48:52 as running solvent. Radioactivity was monitored in the eluate by a Scintillation Analyzer. Total radioactivity for estrone and estradiol were determined in each sample and percent conversion of estrone to estradiol was calculated according to the following formula:
% conversion=100×{(cpm estradiol in sample with inhibitor)/[(cpm estrone in sample with inhibitor)+(cpm estradiol in sample with inhibitor)]}/{[(cpm estradiol in sample without inhibitor)/[(cpm estrone in sample without inhibitor)+(cpm estradiol in sample without inhibitor)]}.
as §1

[3] = biological target: T2, recombinant human 17β-HSD2 (Homo sapiens, UniProt P37059); assay: Inhibition of recombinant human 17β-HSD2 (estradiol to estrone conversion, HPLC/radioactivity); details: compound 1 μM; 50 nM estradiol, 1 mM NADH, 30 min RT
T2 construct: made in house; host or cells: Sd9 (Sf9) insect cells, baculovirus (Bac to Bac Expression System)
T2 sequence (P37059 1-387): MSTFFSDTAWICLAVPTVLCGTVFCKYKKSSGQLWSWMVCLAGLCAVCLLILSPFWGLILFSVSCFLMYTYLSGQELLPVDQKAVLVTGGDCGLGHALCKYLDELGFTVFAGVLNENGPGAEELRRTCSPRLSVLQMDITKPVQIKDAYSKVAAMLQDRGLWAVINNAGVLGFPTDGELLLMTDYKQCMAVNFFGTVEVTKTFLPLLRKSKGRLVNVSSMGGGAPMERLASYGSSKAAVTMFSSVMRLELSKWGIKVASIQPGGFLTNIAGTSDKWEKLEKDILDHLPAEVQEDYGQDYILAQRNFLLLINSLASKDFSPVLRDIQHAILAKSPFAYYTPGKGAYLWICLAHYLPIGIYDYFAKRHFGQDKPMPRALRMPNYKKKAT
Procedure: 17β-HSD2 production and isolation: Similarly to 173-HSD1 the Recombinant baculovirus was generated by the “Bac to Bac Expression System” (Invitrogen). Recombinant bacmid was transfected to Sd9 insect cells using “Cellfectin Reagent” (Invitrogen). 60 h later cells were harvested and supernatant were fractionated by the following protocol: • cells were dissolved into 40 ml of A-buffer (40 mM TRIS, pH8.0, 20% glycerol, 20 μM NAD, 0.4 mM PMSF, 150 mM NaCl, 0.5% dodecyl-β-maltoside+protease inhibitor cocktail) • cells were sonicated • lysate was incubated on ice for 15 min • lysate was centrifuged 5000 rpm 15 min, +4° C. • centrifugation of the supernatant 180 000 g 30 min, +4° C. • pellet was dissolved into 8 ml of A-buffer • not resuspended material was removed by centrifugation 5000 rpm 15 min, +4° C. • the clear supernatant was divided into 100 μl aliquots and were stored frozen until determination of enzymatic activity.
The amount of 173-HSD2 was analysed by immunoblotting and total protein concentration of each extract batch was determined.
Assay—Inhibition of recombinant human 17β-HSD2: Recombinant protein (4 μg/ml) was incubated in 20 mM KH2PO4 pH 8.5 with 50 nM estradiol (including 800 000 cpm/ml of ^3H-estradiol) and 1 mM NADH for 30 min at RT, in the presence of the potential inhibitor at concentrations 1 μM or 0.1 μM. Inhibitor stock solutions were prepared in DMSO. Final concentration of DMSO was adjusted to 1% in all samples. The enzyme reaction was stopped by addition of 10% trichloroacetic acid (final concentration). Samples were centrifuged in a microtiter plate at 4000 rpm for 10 min. Supernatants were applied to reverse phase HPLC on a Waters Symmetry C18 column, equipped with a Waters Sentry Guard column. Isocratic HPLC runs were performed at RT at a flow rate of1 ml/min in acetonitrile:water 48:52 as running solvent. Radioactivity was monitored in the eluate by a Scintillation Analyzer. Total radioactivity for estrone and estradiol were determined in each sample and percent conversion of estradiol to estrone was calculated according to the following formula:
% conversion=100×{(cpm estrone in sample with inhibitor)/[(cpm estradiol in sample with inhibitor)+(cpm estrone in sample with inhibitor)]}/{[(cpm estrone in sample without inhibitor)/[(cpm estradiol in sample without inhibitor)+(cpm estrone in sample without inhibitor)]}.
as §1

Structure (SMILES) | Rabbit placenta inhibition % @100 nM [1] [%] | inhibition at 0.1 µM [2] [%] | inhibition at 1 µM [3] [%]
Cn1ccc(NC(=O)CC[C@@H]2c3c[nH]nc3[C@@]3(C)CCC4c5ccccc5CCC4C23)n1 (stereo partly drawn) [Compound 186, 3-((8aS,12S)-8a-methyl-1,2,6b,7,8,8a,10,12,12a,12b-decahydronaphtho[2′,1′:4,5]indeno[1,2-c]pyrazol-12-yl)-N-(1-methyl-1H-pyrazol-3-yl)propanamide] | 11 | 81 | 1
C[C@]12CCC3c4ccc(F)cc4CCC3C1[C@H](CCC(=O)Nc1cccnn1)c1c[nH]nc12 (stereo partly drawn) [Compound 114, 3-((8aS,12S)-4-fluoro-8a-methyl-1,2,6b,7,8,8a,10,12,12a,12b-decahydronaphtho[2′,1′:4,5]indeno[1,2-c]pyrazol-12-yl)-N-(pyridazin-3-yl)propanamide] | 43 | 53 | -1
CN1CCN(c2ccc(NC(=O)CC[C@@H]3c4c[nH]nc4[C@@]4(C)CCC5c6ccccc6CCC5C34)nc2)CC1 (stereo partly drawn) [Compound 198, 3-((8aS,12S)-8a-methyl-1,2,6b,7,8,8a,10,12,12a,12b-decahydronaphtho[2′,1′:4,5]indeno[1,2-c]pyrazol-12-yl)-N-(5-(4-methylpiperazin-1-yl)pyridin-2-yl)propanamide] | 77 | 88 | 18
C[C@]12CCC3c4ccccc4CCC3C1[C@H](CCC(=O)NC1CCC1)c1c[nH]nc12 (stereo partly drawn) [Compound 192, N-cyclobutyl-3-((8aS,12S)-8a-methyl-1,2,6b,7,8,8a,10,12,12a,12b-decahydronaphtho[2′,1′:4,5]indeno[1,2-c]pyrazol-12-yl)propanamide] | 14 | 86 | 2
Cc1cc(NC(=O)CC[C@@H]2c3c[nH]nc3[C@@]3(C)CCC4c5cccc(F)c5CCC4C23)no1 (stereo partly drawn) [Compound 78, 3-((8aS,12S)-3-fluoro-8a-methyl-1,2,6b,7,8,8a,10,12,12a,12b-decahydronaphtho[2′,1′:4,5]indeno[1,2-c]pyrazol-12-yl)-N-(5-methylisoxazol-3-yl)propanamide] | 39 | 87 | 3
C[C@]12CCC3c4ccc(Cl)cc4CCC3C1[C@H](CCC(=O)Nc1cc(F)ccn1)c1c[nH]nc12 (stereo partly drawn) [Compound 129, 3-((8aS,12S)-4-chloro-8a-methyl-1,2,6b,7,8,8a,10,12,12a,12b-decahydronaphtho[2′1′:4,5]indeno[1,2-c]pyrazol-12-yl)-N-(4-fluoropyridin-2-yl)propanamide] | 28 | 84 | 8
CN(CC1CC1)C(=O)CC[C@@H]1c2c[nH]nc2[C@@]2(C)CCC3c4ccccc4CCC3C12 (stereo partly drawn) [Compound 174, N-(cyclopropylmethyl)-N-methyl-3-((8aS,12S)-8a-methyl-1,2,6b,7,8,8a,10,12,12a,12b-decahydronaphtho[2′,1′:4,5]indeno[1,2-c]pyrazol-12-yl)propanamide] | 14 | 88 | 10
Cc1cc(NC(=O)CC[C@@H]2c3c[nH]nc3[C@@]3(C)CCC4c5ccccc5CCC4C23)no1 (stereo partly drawn) [Compound 246, 3-((8aS,12S)-8a-methyl-1,2,6b,7,8,8a,10,12,12a,12b-decahydronaphtho[2′,1′:4,5]indeno[1,2-c]pyrazol-12-yl)-N-(5-methylisoxazol-3-yl)propanamide] | 19 | 80 | 15
C[C@]12CCC3c4ccccc4CCC3C1[C@H](CCC(=O)Nc1cccnn1)c1c[nH]nc12 (stereo partly drawn) [Compound 255, 3-((8aS,12S)-8a-methyl-1,2,6b,7,8,8a,10,12,12a,12b-decahydronaphtho[2′,1′:4,5]indeno[1,2-c]pyrazol-12-yl)-N-(pyridazin-3-yl)propanamide] | 46 | 66 | 0
C[C@]12CCC3c4cccc(F)c4CCC3C1[C@H](CCC(=O)Nc1ccc(C#N)cn1)c1c[nH]nc12 (stereo partly drawn) [Compound 3, N-(5-Cyanopyridin-2-yl)-3-((8aS,12S)-3-fluoro-8a-methyl-1,2,6b,7,8,8a,10,12,12a,12b-decahydronaphtho[2′,1′:4,5]indeno[1,2-c]pyrazol-12-yl)propanamide] | 54 | 98 | 9
